Experimental data from patent US20090298902A1, “PESTICIDE COMPOSITIONS FOR COMBATING ARTHROPOD PESTS, SNAILS AND NEMATODES” (priority 2006, published 2009).

Tested on: workers of the eastern subterranean termite, Reticulitermes flavipes
Assay: Test example 4: soil incorporation bioassay with compound P5a formulations
Type: in vivo
Details: 24 h, 1 DAT, read-out: Mean cumulative % mortality at days after treatment (DAT)
Experimental: Bioassays were conducted in 60×15 mm Petri dishes with a 1% agar layer for moisture and 15 termite workers per dish. Granular formulations were incorporated into the Princeton sandy loam soil by hand shaking and mixing with use of a commercial jar roller. After incorporation, water was added to field capacity, and the soil was rolled again. The soil was allowed to sit at field capacity overnight. The soil was then air dried for 24 hours prior to introduction into the test dishes. Conventional suspension concentrate of fipronil was used as a standard, and untreated soil used as a control. Test dishes were maintained at approximately 26° C. and 85% RH. Dishes were observed daily for 13 days for mortality. The concentration of active ingredient was 0.0004875% (w/w) in trench.
Test example 4 was performed similar to test example 1, using formulations containing compound P5a. Comparison of a superabsorber formulation of compound P5 to a DC formulation of compound P5 for bioactivity against workers of the eastern subterranean termite, Reticulitermes flavipes, via soil (Princeton sandy loam) incorporation;

Work on `CCN/C(=N\Nc1c(Cl)cc(C(F)(F)F)cc1Cl)C1(C)CC1(Cl)Cl` (centres unmarked) [Compound P5a] yielded a mortality at 10 ppm (Rate 10 ppm) of 100% and a mortality at 100 ppm (Rate 100 ppm) of 100%.
